Results reported in ChEMBL document CHEMBL3525963, “Tissue distribution and elimination of [14C]apixaban in rats” (Drug Metab Dispos, 2011).

What was measured:
[1] = Drug level in feces of Sprague-Dawley rat treated with [14C]apixaban at 30 mg/kg, po assessed as compound level by HPLC method; conditions: in vivo
[2] = Drug level in urine of Sprague-Dawley rat treated with [14C]apixaban at 30 mg/kg, po assessed as compound level by HPLC method; conditions: in vivo

Compound recovery [1]: 13% | Compound recovery [2]: 2%
Compound: NC(=O)c1nn(-c2ccc(O)cc2)c2c1CCN(c1ccc(N3CCCC[14C]3=O)cc1)C2=O
